Results: patent US11274073B2, “TRPV1 modulator compounds” (ANTALGENICS, S.L., priority 2017, dated 2022)

How the values were obtained:
rat TRPV1 channel [1] = molecular target: T1, rat TRPV1 channel (Rattus norvegicus, UniProt O35433); assay: Calcium microfluorometry assay on TRPV1-SH-SY5Y cells, single concentration 10 μM; format: cell-based; details: for TRPV1 activation at 10 μM (% ± SD): compound 10 μM, Fluo-4 NW fluorescence, Cap (10 μM capsaicin) = 100%; for TRPV1 blockage at 10 μM (% ± SD): compound 10 μM before stimulation with 10 μM capsaicin, RR (10 μM Ruthenium Red) = 100%
T1 construct: expressed in transfected cells; host or cells: SH-SY5Y (human neuroblastoma) stably expressing rat TRPV1, under puromycin selection
Procedure: (§1) The activity of the compounds was determined on TRPV1 expressing cells (TRPV1-SH-SY5Y) by Calcium microfluorometry assay.
(§2) SH-SY5Y cells stably expressing rat TRPV1 channel (SH-SY5Y-TRPV1) were grown in Earle's minimum essential medium (MEM) containing 10% (v/v) of FCS, 1% nonessential amino acids, 2 mM L-glutamine, 100 μg/ml streptomycin, 100 U/ml penicillin, and 0.4 μg/ml puromycin in a humidity-controlled incubator with 5% CO2 and at 37° C. For fluorescence assays, cells expressing TRPV1 channel (TRPV1-SH-SY5Y) were seeded in 96-well plates (Corning Incorporated, Corning, N.Y.) at a cell density of 40,000 cells 2 days before treatment. The day of treatment the medium was replaced with 100 μL of the dye loading solution Fluo-4 NW supplemented with probenecid 2.5 mM. After incubation at 37° C. in a humidified atmosphere of 5% CO2 for 60 minutes, plates were transferred to a fluorescence plate reader (Polastar Omega BMG Labtech). The baseline fluorescence of Fluo-4 dye ([…]) was recorded for 4 cycles. […] The antagonist (10 μM Ruthenium Red for TRPV1) was added for the blockade. The changes in fluorescence intensity were recorded during 10 cycles more.

rat TRPV1 channel [2] = molecular target: T1, rat TRPV1 channel; assay: Dose response measurements (EC50/IC50), calcium microfluorometry on TRPV1-SH-SY5Y cells; format: cell-based; details: n=3 in 3 independent experiments; for EC50: TRPV1 activation; for IC50: TRPV1 blockage
Procedure: as §1, §2
Normalized responses (%) versus log [μM] were adjusted to a non-linear fit with variable slope, a four-parameter dose-response curve Y=100/(1+10^((LogEC50−X)*HillSlope)) where […] or just dose-response curve Y=100/(1+10^((LogEC50−X))). EC50 are expressed with 95% confident interval followed by r^2 for regression adjustment. All data are expressed as mean±standard error of the mean […]. Each condition was assessed by triplicate (n=3) in 3 independent experiments (N=3).

C57-mice = assay: CFA-induced paw inflammation model of inflammatory pain, thermal hyperalgesia (paw withdrawal latency); format: in vivo; details: 24 h after CFA
Procedure: Data are given as mean±SEM n=6. 2-way ANOVA with Bonferroni post hoc test. *P<0.05; **P<0.01, ***P<0.001, […].
One of the compounds with higher potency (Ex-37) was selected to be tested in a model of inflammatory pain. C57-mice (≈30 g) were used for the study. C57BL/6 were obtained from Janvier, France. Complete Freund's adjuvant (CFA) emulsion (1:1 oil/saline, 0.5 mg/ml) was injected into the plantar surface (10 μl) of the right hind paw (Garcia-Martinez et al., 2006). 24 h after CFA injection, compound Ex-37 was administered intravenously (at 1 mg/kg, 3 mg/kg or 10 mg/kg) or intraplantar (at 10 mg/kg, 30 mg/kg or 100 mg/kg)) on the right hind paw. Thermal hyperalgesia was monitored 24 h after CFA injection and up to 2 h after administering the compound with an Ugo Basile Dynamic Plantar Aesthesiometer as reported previously (Garcia-Martinez et al., 2006). In brief, mice were habituated to an apparatus consisting of individual Perspex boxes on an elevated glass table. A mobile radiant heat source was located under the table and focused on the hind paw. Paw withdrawal latencies were defined as the time taken by the mouse to remove its hind paw from the heat source. A cutoff point of 25 s was set to prevent tissue damage.

T1 sequence (O35433 whole entry): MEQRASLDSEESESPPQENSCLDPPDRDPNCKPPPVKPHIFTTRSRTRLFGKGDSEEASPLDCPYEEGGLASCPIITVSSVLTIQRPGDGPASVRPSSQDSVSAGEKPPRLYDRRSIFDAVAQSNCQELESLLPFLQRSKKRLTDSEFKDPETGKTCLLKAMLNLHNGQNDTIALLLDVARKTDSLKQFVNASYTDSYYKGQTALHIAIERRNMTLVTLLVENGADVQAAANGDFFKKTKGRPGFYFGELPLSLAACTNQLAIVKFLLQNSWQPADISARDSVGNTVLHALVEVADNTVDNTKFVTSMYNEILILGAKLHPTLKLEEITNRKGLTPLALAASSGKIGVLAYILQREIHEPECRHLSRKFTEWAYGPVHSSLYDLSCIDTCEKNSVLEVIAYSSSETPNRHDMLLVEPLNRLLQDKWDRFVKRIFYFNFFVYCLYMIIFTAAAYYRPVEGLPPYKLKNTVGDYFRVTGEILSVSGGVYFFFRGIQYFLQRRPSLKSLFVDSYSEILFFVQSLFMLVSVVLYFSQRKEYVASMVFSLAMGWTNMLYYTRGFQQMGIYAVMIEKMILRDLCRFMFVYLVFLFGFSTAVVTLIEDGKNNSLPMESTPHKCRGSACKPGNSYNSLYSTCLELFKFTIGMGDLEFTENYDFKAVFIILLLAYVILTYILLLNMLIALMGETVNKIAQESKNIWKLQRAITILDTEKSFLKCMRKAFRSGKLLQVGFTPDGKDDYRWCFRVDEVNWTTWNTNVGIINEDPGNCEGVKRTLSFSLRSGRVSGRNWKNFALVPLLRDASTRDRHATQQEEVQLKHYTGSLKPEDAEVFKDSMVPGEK

Structure (SMILES): COc1cc(CNC(=O)COC(=O)CC/C(C)=C/CC/C(C)=C/CC/C=C(\C)CCC=C(C)CCC=C(C)C)ccc1O (stereo in doubt) [Ex-52, (4E,8E,12E,16E)-2-((4-hydroxy-3-methoxybenzyl)-amino)-2-oxoethyl 4,8,13, 17,21-pentamethyldocosa-4,8,12,16,20-pentaenoate]
- TRPV1 activation at 10 μM (% ± SD) (rat TRPV1 channel [1]): 79.31 ± 6.41%
- EC50 (rat TRPV1 channel [2]): 0.04 ± 0.008 µM

Structure (SMILES): CC(C)=CCCC(C)=CCC/C(C)=C/CC/C=C(\C)CC/C=C(\C)CCC(=O)OCC(=O)NCc1ccc(O)c(O)c1 (stereo in doubt) [Ex-56, (4E,8E,12E,16E)-2-((3,4-dihydroxybenzyl)amino)-2-oxoethyl 4,8,13,17,21-pentamethyldocosa-4,8,12,16,20-pentaenoate]
- TRPV1 activation at 10 μM (% ± SD) (rat TRPV1 channel [1]): 83.71 ± 6.00%
- EC50 (rat TRPV1 channel [2]): 0.015 ± 0.02 µM

Structure (SMILES): COc1cc(CNC(=O)COC(=O)/C=C(\C)CCC=C(C)C)ccc1O [Ex-32, (E)-2-((4-hydroxy-3-methoxy-benzyl)amino)-2-oxoethyl 3,7-dimethylocta-2,6-dienoate]
- TRPV1 activation at 10 μM (% ± SD) (rat TRPV1 channel [1]): 75.90 ± 2.49%
- EC50 (rat TRPV1 channel [2]): 0.28 ± 0.08 µM

Structure (SMILES): CCCCCCCCCCCC(=O)OCC(=O)NCc1ccc(O)c(OC)c1 [Ex-36, 2-((4-hydroxy-3-methoxy-benzyl)amino)-2-oxoethyl dodecanoate]
- TRPV1 activation at 10 μM (% ± SD) (rat TRPV1 channel [1]): 74.80 ± 8.30%
- EC50 (rat TRPV1 channel [2]): 0.08 ± 0.03 µM

Structure (SMILES): CCCCCCCCCCCC(=O)OCC(=O)NCc1cc(OC)c(O)cc1I [Ex-37, 2-((4-hydroxy-2-iodo-5-methoxybenzyl)amino)-2-oxoethyl dodecanoate]
- antinociceptive effect in the thermal hyperalgesia test, intraplantar (C57-mice; intraplantar at 10, 30 or 100 mg/kg on the right hind paw, FIG. 2): showed antinociceptive effects
- antinociceptive effect in the thermal hyperalgesia test, intravenous (C57-mice; intravenously at 1, 3 or 10 mg/kg, FIG. 1): showed antinociceptive effects
- TRPV1 blockage at 10 μM (% ± SD) (rat TRPV1 channel [1]): 43.18 ± 10.07%
- IC50 (rat TRPV1 channel [2]): 0.86 ± 0.51 µM

Structure (SMILES): CC(C)=CCC/C(C)=C/C(=O)OCC(=O)NCc1ccc(O)c(O)c1 [Ex-54, (E)-2-((3,4-dihydroxybenzyl)amino)-2-oxoethyl 3,7-dimethylocta-2,6-dienoate]
- TRPV1 activation at 10 μM (% ± SD) (rat TRPV1 channel [1]): 77.42 ± 5.17%
- EC50 (rat TRPV1 channel [2]): 0.11 ± 0.02 µM

Structure (SMILES): CC(C)=CCC/C(C)=C/C(=O)OCC(=O)NCc1cc(O)c(O)cc1I [Ex-55, (E)-2-((4,5-dihydroxy-2-iodobenzyl)amino)-2-oxoethyl 3,7-dimethylocta-2,6-dienoate]
- TRPV1 blockage at 10 μM (% ± SD) (rat TRPV1 channel [1]): 104.22 ± 12.65%
- IC50 (rat TRPV1 channel [2]): 6.82 ± 1.38 µM

Structure (SMILES): CCCCCCCC/C=C\CCCCCCCC(=O)OCC(=O)NCCc1cc(O)c(O)cc1I [Ex-63, 2-((4,5-dihydroxy-2-iodophenethyl)amino)-2-oxoethyl oleate]
- TRPV1 blockage at 10 μM (% ± SD) (rat TRPV1 channel [1]): 1.13 ± 5.56%

Structure (SMILES): CCCCC/C=C\C/C=C\C/C=C\C/C=C\CCCC(=O)OCC(=O)NCCc1ccc(O)c(O)c1 [Ex-64, (5Z,8Z,11Z,14Z)-2-((3,4-dihydroxyphenethyl)amino)-2-oxoethyl icosa-5,8,11,14-tetraenoate]
- TRPV1 activation at 10 μM (% ± SD) (rat TRPV1 channel [1]): 79.05 ± 11.25%

Structure (SMILES): CCCCC/C=C\C/C=C\C/C=C\C/C=C\CCCC(=O)OCC(=O)NCCc1cc(O)c(O)cc1I [Ex-65, (5Z,8Z,11Z,14Z)-2-((4,5-dihydroxy-2-iodophenethyl)-amino)-2-oxoethyl icosa-5,8,11,14-tetraenoate]
- TRPV1 blockage at 10 μM (% ± SD) (rat TRPV1 channel [1]): 6.71 ± 2.18%

Structure (SMILES): N.N.N.N.N.N.N.N.N.N.N.N.N.N.[Cl-].[Cl-].[Cl-].[Cl-].[Cl-].[Cl-].[O-2].[O-2].[Ru+3].[Ru+3].[Ru+4] [RR, Ruthenium Red, reference compound]
- TRPV1 blockage at 10 μM (% ± SD) (rat TRPV1 channel [1]): 100%
